Results taken from patent publication US7893108B2, “Antiviral methods and compositions” (priority 2004, dated 2011).
“Also recorded” adds a separate entry of the source. Like-named read-outs stand apart in the source and are kept apart here.

Assays:
UL54 = UL54 (Human cytomegalovirus, UniProt P08546); test: basal DNA polymerase activity of UL54 alone (filter-based assay); assay type: biochemical; conditions: 0, 4, 20, 40, 100 μM; 20 min at 37° C.; read-out: IC50 for inhibition of the activity of UL54 alone
Description: The basal DNA polymerase activity of UL54 in the absence or in the presence of various amounts of each compound was measured by a filter-based assay as previously described (Loregian et al., 2003), but using 5 μl of in vitro-transcribed and -translated UL54 as in Loregian et al. (Loregian et al., 2004a). The reaction was initiated by addition of a reaction mixture containing 75 mM Tris-HCl (pH 8.0), 6.5 mM MgCl2, bovine serum albumin (400 μg/ml), 1.67 mM β-mercaptoethanol, 150 mM KCl, 1.6 μM [^3H]dTTP, poly(dA)-oligo(dT) (10 μg/ml; Amersham Pharmacia Biotech), and 0, 4, 20, 40, 100 μM of each compound. Samples were taken after 20 min of incubation at 37° C. and spotted onto DE81 filters (Whatman), previously soaked in 0.1 M EDTA and air dried. The filters were washed three times in 5% Na2HPO4, two times in water, and two times in methanol and then were dried. Radioactivity was measured with a scintillation counter.

HCMV AD169 = test: virus yield reduction assay; assay type: cell-based, human cytomegalovirus
Description: Next, we tested the effects of selected compounds and of GCV as a control in viral yield assays, which measure the titer of virus progeny produced following infection at relatively high multiplicity. In these assays, the viral titer was measured at two different times points post-infection (p.i.): at 96 hrs, when the release of virus progeny is increasing, and at 120 hrs, when the titer of virus progeny after a single cycle of replication reaches peak levels (Stinski, 1983).
(§1) For yield reduction assays, HFF cells were plated at 2×10^4 cells per well in 96-well cluster dishes, incubated overnight, and infected with HCMV AD169 at a multiplicity of infection (MOI) of 1. After virus adsorption for 2 hr at 37° C., cells were washed and incubated with 200 μl of fresh media containing test compounds at increasing drug concentration. Plates were incubated for 3 or 5 days at 37° C. and subjected to one cycle of freezing and thawing, and titers were determined by transferring 100-μl aliquots from each of the wells to a fresh 96-well monolayer culture of HFF cells followed by 1:5 serial dilution across the plate. Cultures were incubated for 7 days, cells were stained, and the numbers of plaques were determined as described above.
as §1, with “The effect of the compounds was assessed in an assay of virus yield. In this assay, cells are infected at a relatively high multiplicity of infection (about one per cell) and then drug is added. The virus produced at the different times post infection is measured. 120 hrs. is about the peak titer. This assay was conducted as follows.” for “For yield reduction assays,”, “20,000” for “2×10^4”, “an MOI” for “a multiplicity of infection (MOI)”, “0.1, 0.3, 1, 3, 10, 30 μM” for “increasing”

UL54 plus GST-UL44ΔC290 = target: T1, UL54 plus GST-UL44ΔC290 (Human cytomegalovirus, UniProt P16790); test: long-chain DNA synthesis by UL54 in the presence of UL44; assay type: biochemical, HCMV; conditions: for inhibition of long-chain DNA synthesis by UL54 and UL44: dose-response; for inhibition of long-chain DNA synthesis by UL54 and UL44 at one concentration: 40 μM
T1 construct: GST-UL44ΔC290 fusion protein, which contains the N-terminal 290 residues of HCMV UL44; made in house; host or cells: UL54: in vitro transcription/translation; GST-UL44ΔC290: E. coli BL21 (DE3)pLysS
Description: To analyze the ability of the compounds to interfere with functional UL54-UL44 interactions, we tested their ability to inhibit long-chain DNA synthesis by UL54 in the presence of UL44 employing a poly(dA)-oligo(dT)12-18 template-primer.
DNA polymerase assays. The effects of compounds were tested in an assay that measures long-chain DNA synthesis as described in Loregian et al. (Loregian et al., 2004a), with 5 μl of in vitro-transcribed and -translated UL54 plus 800 fmol of GST-UL44ΔC290 in the absence or in the presence of various amounts of each compound.
The effect of the compounds was also tested in an assay that measures long chain (Lc) DNA synthesis as described in Loregian et al., J. Virol. […]

[1] = target: T2, full-length UL54 / UL44 interaction (Human cytomegalovirus, UniProt P16790); test: UL54-UL44 interaction ELISA; assay type: binding, HCMV; conditions: concentrations up to 200 μM
T2 construct: made in house; host or cells: baculovirus expression; proteins provided by H. S. Marsden (Institute of Virology, Glasgow)
Description: In this assay, binding between purified baculovirus-expressed UL54 and UL44, which was tagged with an EEF epitope, was detected using an antibody that recognizes the epitope tag (Loregian et al., 2003).
UL54-UL44 interaction ELISA. This assay was conducted as described in (Loregian et al., 2003), testing various concentrations of each compound. After final washes, the chromogenic substrate 2,2′-azino-bis(3-ethylbenzothiazoline-6-sulphonic acid (ABTS, Pierce) in citrate phosphate buffer (pH 4.0) containing 0.01% hydrogen peroxide was added and absorbance was read at 405 nm on a Victor plate reader (Wallac).
Another assay that was used to test the effect of the compounds on the interaction of UL44 and UL54 is an ELISA interaction assay, which measures the interaction of the two full length proteins with each other. This assay was conducted as described in Loregian et al., J. Virol. 2003, 77:8336-8344, testing different concentrations (0, 3.12, 6.25, 12.5, 25, 50, 100, 200 μM) of each compound.

HCMV strain AD169 = test: plaque reduction assay; assay type: cell-based, human cytomegalovirus; conditions: HFF cells; 0-30 μM
Description: Antiviral assays. Plaque reduction assays were performed essentially as follows: HFF (human foreskin fibroblast) cells were seeded at 2×10^5 cells per well in 24-well cluster dishes. The next day, cells were infected with HCMV (strain AD169) at 80 PFU per well in DMEM plus 5% fetal bovine serum (FBS) at 37° C. Two hours post-infection, the inocula were removed, cells were washed, and media containing various drug dilutions, 5% FBS, and 0.6% methylcellulose were added. All drug dilutions were tested at least in duplicate. After incubation at 37° C. for 10-11 days, cell monolayers were stained with crystal violet and plaques were counted under light microscopy.
The effect of the compounds was assessed in a plaque reduction assay that measures the number of plaques formed in the presence of varying concentrations of a drug, as follows. HFF were seeded at 2×10^5 cells per well in 24-well cluster dishes. The next day, they were infected with HCMV AD169 at 80 PFU per well in DMEM plus 5% FBS at 37° C. Two hr post-infection, the inocula were then removed, cells were washed, and media containing selected drug dilutions (0, 0.1, 0.3, 1, 3, 10, 30 μM), and 5% FBS and 0.6% methylcellulose were added. All drug dilutions were tested at least in duplicate. After incubation at 37° C. for 10-11 days, cell monolayers were stained with crystal violet and plaques were enumerated under light microscopy.

HFF cells = test: XTT cytotoxicity assay; assay type: cell-based, human
Description: (§2) Cytotoxicity assays. HFF cells were seeded at 2×10^4, 4×10^3, or 10^3 cells per well into 96-well plates and, after a 3-hr incubation to allow cell attachment, were treated for 24, 72, or 120 hr, respectively, with various concentrations of each compound in duplicate. Cell viability was then determined with an XTT assay (Roche Molecular Biochemicals) according to the manufacturer's protocol by using a Victor plate reader (Wallac).
(§3) The cytotoxicity of the compounds was measured in an XTT assay. XTT is a compound that is converted to a product that can be measured […], but only by viable cells. This assay is as follows. HFF (human foreskin fibroblasts) cells were seeded at different concentrations into 96-well plates and treated with various concentrations (from 0 to 200 μM) of each compound in duplicate for 24, 72 or 120 hr. Cell viability was then determined with an XTT assay (Roche Molecular Biochemicals) according to the manufacturer's protocol by using a Victor plate reader (Wallac).

XTT cytotoxicity assay = assay type: cell-based, human; conditions: human
Description: as §2, §3

[2] = literature; cited from earlier work

T2 sequence (P16790 whole entry): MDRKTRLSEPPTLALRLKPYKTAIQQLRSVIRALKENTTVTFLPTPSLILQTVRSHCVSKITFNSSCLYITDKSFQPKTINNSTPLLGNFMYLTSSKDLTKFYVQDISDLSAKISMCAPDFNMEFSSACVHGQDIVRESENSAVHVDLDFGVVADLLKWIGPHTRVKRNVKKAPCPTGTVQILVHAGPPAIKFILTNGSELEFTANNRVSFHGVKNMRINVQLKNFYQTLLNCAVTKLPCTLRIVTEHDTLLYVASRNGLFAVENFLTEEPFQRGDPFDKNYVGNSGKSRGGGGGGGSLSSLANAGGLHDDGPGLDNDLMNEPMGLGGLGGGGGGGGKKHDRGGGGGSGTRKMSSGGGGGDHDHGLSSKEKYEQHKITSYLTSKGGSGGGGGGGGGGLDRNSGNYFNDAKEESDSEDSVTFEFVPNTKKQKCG
T1 sequence (P16790 1-290, stated change not applied): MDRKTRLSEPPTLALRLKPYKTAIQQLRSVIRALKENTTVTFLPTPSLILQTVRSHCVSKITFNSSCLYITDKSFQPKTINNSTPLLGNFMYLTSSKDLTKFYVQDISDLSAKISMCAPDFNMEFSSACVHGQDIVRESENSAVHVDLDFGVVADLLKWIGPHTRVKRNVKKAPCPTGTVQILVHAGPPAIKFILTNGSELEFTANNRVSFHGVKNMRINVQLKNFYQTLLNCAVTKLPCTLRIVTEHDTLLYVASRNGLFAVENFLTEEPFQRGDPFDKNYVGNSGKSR
Sequence of UL54 (P08546 whole entry): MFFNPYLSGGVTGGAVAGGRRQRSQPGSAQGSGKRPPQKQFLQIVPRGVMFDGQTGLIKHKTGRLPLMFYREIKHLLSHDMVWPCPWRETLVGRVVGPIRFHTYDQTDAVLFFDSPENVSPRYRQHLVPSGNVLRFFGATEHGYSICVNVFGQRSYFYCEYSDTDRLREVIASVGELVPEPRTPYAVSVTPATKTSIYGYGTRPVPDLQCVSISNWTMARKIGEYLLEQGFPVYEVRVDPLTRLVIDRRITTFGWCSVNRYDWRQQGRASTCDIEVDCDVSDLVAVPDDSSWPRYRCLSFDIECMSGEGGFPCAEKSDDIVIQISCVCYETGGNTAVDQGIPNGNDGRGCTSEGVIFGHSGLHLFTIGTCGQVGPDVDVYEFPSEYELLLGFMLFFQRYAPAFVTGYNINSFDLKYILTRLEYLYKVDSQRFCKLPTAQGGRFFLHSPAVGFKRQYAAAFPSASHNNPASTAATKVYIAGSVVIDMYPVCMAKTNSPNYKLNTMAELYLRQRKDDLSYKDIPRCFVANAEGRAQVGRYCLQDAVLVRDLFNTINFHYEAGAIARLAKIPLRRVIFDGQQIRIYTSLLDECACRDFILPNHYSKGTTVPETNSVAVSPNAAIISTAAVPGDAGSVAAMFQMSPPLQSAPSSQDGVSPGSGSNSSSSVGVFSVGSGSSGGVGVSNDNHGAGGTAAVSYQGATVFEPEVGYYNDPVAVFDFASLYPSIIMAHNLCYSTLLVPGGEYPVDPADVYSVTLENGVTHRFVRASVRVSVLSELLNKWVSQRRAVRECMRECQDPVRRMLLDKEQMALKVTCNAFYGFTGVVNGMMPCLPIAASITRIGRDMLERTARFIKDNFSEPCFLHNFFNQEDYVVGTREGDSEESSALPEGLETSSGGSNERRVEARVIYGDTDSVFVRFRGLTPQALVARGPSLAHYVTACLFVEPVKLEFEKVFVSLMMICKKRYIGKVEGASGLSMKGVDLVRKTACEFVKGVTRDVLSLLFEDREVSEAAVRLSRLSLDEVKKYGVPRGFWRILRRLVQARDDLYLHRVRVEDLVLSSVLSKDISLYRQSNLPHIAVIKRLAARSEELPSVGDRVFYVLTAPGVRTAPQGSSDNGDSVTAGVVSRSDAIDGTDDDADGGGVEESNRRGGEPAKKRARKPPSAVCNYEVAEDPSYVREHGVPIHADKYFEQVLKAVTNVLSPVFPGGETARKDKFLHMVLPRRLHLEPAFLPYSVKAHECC

Structure (SMILES) | effect on virus yield / HCMV replication (HCMV AD169) | inhibition of long-chain DNA synthesis by UL54 and UL44 (UL54 plus GST-UL44ΔC290) | inhibition of the UL54-UL44 physical interaction [1] | IC50s in plaque reduction assay (HCMV strain AD169) | cytotoxic concentration relative to antiviral concentration (HFF cells) | cytotoxicity (HFF cells) | inhibition of long-chain DNA synthesis by UL54 and UL44 at one concentration (UL54 plus GST-UL44ΔC290) | also measured
CCOc1cc(C2C(C#N)=C(N)Oc3n[nH]c(-c4ccc(OC)cc4)c32)cc([N+](=O)[O-])c1O (stereo not shown) [AL2] | little or no effect | little or no inhibition |  |  |  |  |  | IC50 (UL54): 95 µM
O=c1c2cccc3cccc(c32)c2nc3ccccc3n12 [AL12] |  | relatively low IC50s | potent | relatively low IC50s | 7-500 fold | relatively high CC50's | severely decreased formation of long DNA products | effect on virus yield / HCMV replication (HCMV AD169; HFF cells): relatively low IC50s
Nc1ccc(N)c2c1C(=O)c1c(O)ccc(O)c1C2=O [AL18] | relatively low IC50s; also recorded: submicromolar | relatively low IC50s | potent | relatively low IC50s |  |  | severely decreased formation of long DNA products | CC50 (HFF cells; 120 hrs, HFF cells): 200 µM; cytotoxicity (HFF cells; HFF cells, 24, 72 or 120 hr): relatively high CC50's
CNC(=S)NN=Cc1ccc(OC)c(Br)c1 [AL20] | relatively low IC50s | little or no inhibition | did not significantly inhibit | relatively low IC50s | 7-500 fold | relatively high CC50's |  | 
Nc1nc(O)c2ncn(COC(CO)CO)c2n1 [GCV, ganciclovir, reference compound] |  |  |  |  |  |  |  | CC50 (XTT cytotoxicity assay): ~200 µM
Nc1ccn(C[C@@H](CO)OCP(=O)(O)O)c(=O)n1 [cidofovir] |  |  |  |  |  |  |  | cytotoxic activities reported [2]: 360 µM
